From ChEMBL document CHEMBL1139117, “Novel 4-(6,7-dimethoxy-1,2,3,4-tetrahydroisoquinolin-2-yl)methylbenzofuran derivatives as selective alpha(2C)-adrenergic receptor antagonists” (Bioorg Med Chem Lett, 2007)
The source made the active and inactive calls. The calls are words filed in the database; no cut-off is given here.

Key:
[1] = target: T1, Alpha-2C adrenergic receptor (Homo sapiens) (UniProt P18825); assay: Displacement of [3H]MK912 from adrenergic alpha-2C receptor in HepG2 cells at 0.1 uM; assay type: cell-based
T1 sequence (whole entry): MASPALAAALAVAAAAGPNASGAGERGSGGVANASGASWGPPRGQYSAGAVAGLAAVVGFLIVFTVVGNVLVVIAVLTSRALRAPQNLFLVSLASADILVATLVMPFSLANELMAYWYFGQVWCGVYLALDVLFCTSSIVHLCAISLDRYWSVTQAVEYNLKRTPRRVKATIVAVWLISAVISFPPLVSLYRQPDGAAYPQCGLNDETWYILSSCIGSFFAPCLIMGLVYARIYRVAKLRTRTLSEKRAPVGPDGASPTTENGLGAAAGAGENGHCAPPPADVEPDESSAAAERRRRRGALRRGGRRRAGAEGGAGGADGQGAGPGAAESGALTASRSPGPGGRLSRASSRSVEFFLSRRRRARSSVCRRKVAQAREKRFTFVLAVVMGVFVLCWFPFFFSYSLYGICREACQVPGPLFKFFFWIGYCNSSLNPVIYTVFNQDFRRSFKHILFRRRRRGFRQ

[2] = target: T2, Alpha-2B adrenergic receptor (Homo sapiens, UniProt P18089); assay: Displacement of [3H]MK912 from adrenergic alpha-2B receptor expressed in COS7 cells; assay type: cell-based, COS-7
T2 sequence (P18089 whole entry): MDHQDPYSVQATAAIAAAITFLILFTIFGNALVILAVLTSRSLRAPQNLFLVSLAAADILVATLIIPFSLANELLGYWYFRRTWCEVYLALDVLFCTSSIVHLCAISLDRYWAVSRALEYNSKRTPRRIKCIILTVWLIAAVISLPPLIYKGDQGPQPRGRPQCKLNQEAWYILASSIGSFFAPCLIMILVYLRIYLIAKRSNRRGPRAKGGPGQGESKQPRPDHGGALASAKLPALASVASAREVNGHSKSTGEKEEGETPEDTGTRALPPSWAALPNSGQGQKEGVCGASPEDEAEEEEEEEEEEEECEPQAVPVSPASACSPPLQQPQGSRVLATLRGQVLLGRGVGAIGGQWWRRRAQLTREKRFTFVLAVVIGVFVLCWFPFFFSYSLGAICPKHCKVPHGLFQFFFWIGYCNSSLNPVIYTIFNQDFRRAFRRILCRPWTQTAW

[3] = target: T3, Alpha-2C adrenergic receptor (Homo sapiens, UniProt P18825); assay: Displacement of [3H]MK912 from adrenergic Alpha-2C receptor in HepG2 cells; assay type: cell-based
T3 sequence (P18825 whole entry): T1 sequence (whole entry)

[4] = target: T4, Alpha-2A adrenergic receptor (Homo sapiens, UniProt P08913); assay: Displacement of [3H]MK-912 from adrenergic alpha2A receptor in HT29 cells; assay type: cell-based, HT-29
T4 sequence (P08913 whole entry): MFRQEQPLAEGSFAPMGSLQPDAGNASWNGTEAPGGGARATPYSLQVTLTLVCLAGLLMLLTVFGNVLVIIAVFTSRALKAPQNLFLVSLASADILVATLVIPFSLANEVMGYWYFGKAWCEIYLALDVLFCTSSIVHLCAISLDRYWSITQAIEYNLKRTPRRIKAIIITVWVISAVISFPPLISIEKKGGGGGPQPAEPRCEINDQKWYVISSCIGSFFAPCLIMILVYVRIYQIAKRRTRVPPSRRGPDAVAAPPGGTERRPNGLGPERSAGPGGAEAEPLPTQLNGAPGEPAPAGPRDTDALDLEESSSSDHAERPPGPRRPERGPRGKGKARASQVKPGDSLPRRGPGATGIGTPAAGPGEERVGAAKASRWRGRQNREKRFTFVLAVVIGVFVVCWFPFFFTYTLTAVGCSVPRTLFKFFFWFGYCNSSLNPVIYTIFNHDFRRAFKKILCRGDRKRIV

[5] = target: T5, Alpha-2B adrenergic receptor (Homo sapiens) (UniProt P18089); assay: Displacement of [3H]MK912 from adrenergic alpha-2B receptor expressed in COS7 cells at 0.1 uM; assay type: cell-based; details: COS-7
T5 sequence (whole entry): T2 sequence (P18089 whole entry)

[6] = target: T6, Alpha-2A adrenergic receptor (Homo sapiens) (UniProt P08913); assay: Displacement of [3H]MK912 from adrenergic alpha2A receptor in HT29 cells at 0.1 uM; assay type: cell-based; details: HT-29
T6 sequence (whole entry): T4 sequence (P08913 whole entry)

Callithrix jacchus [7] = assay: Activity against […] induced dyskinetic activity in marmoset at 2.5 mg/kg, po; assay type: functional, organism-based; set-up: dose 2.5 mg/kg
[8] = AUC in mormoset at 2.5 mg/kg; assay type: ADME, organism-based, Callithrix jacchus; set-up: dose 2.5 mg/kg; details: marmoset, plasma
Callithrix jacchus [9] = assay: Activity against […] induced dyskinetic activity in marmoset at 30 mg/kg, po; assay type: functional, organism-based; set-up: dose 30 mg/kg

Compound	inhibition [1]	Ki [2]	Ki [3]	Ki [4]	also measured
COc1cc2c(cc1OC)CN(Cc1ccc(OC)c3oc(C(=O)NCC(C)(C)N)cc13)CC2		1.54 µM	0.0042 µM	0.141 µM	
COc1cc2c(cc1OC)CN(Cc1ccc(OC)c3oc(-c4ccccc4F)cc13)CC2		0.299 µM	0.011 µM	0.857 µM	
CCCNC(=O)c1cc2c(CN3CCc4cc(OC)c(OC)cc4C3)ccc(OC)c2o1	20%				
COc1cc2c(cc1OC)CN(Cc1cnc(N)n3nc(-c4ccco4)nc13)CC2		0.37 µM	0.019 µM	0.4 µM	
COc1cc2c(cc1OC)CN(Cc1ccc(OC)c3oc(-c4ccc(C(F)(F)F)cc4)cc13)CC2	18%				
COc1cc2c(cc1OC)CN(Cc1cc(OC)c3oc(C(=O)NCCN(C)C)cc3c1)CC2	41%				
COc1cc2c(cc1OC)CN(Cc1ccc(OC)c3oc(C(=O)NCCNC(C)=O)cc13)CC2	9%				
COc1ccc(CN2CCc3ccccc3C2)c2cc(-c3ccccc3)oc12	54%				inhibition [5]: 51%; inhibition [6]: 30%
COc1cc2c(cc1OC)CN(Cc1ccc(OC)c3oc(-c4cccnc4)cc13)CC2	62%				
CCCNC(=O)c1cccc(-c2cc3c(CN4CCc5cc(OC)c(OC)cc5C4)ccc(OC)c3o2)c1	48%				
COc1ccc(-c2cc3c(CN4CCc5cc(OC)c(OC)cc5C4)ccc(OC)c3o2)cc1	56%				
COc1cc2c(cc1OC)CN(Cc1ccc(OC)c3oc(C(=O)NCCN(C)C)cc13)CC2		2.07 µM	0.0094 µM	0.454 µM	Activity (Callithrix jacchus [9]): inactive; AUC [8]: 144 ng·h/mL
COc1cc2c(cc1OC)CN(Cc1ccc(OC)c3oc(-c4cccc(C#N)c4)cc13)CC2	42%				
COc1cc2c(cc1OC)CN(Cc1ccc(OC)c3oc(C(=O)N4CCC(N5CCCC5)CC4)cc13)CC2		1.36 µM	0.0035 µM	0.186 µM	
COc1cc2c(cc1OC)CN(Cc1ccc(OC)c3oc(-c4ccco4)cc13)CC2		0.16 µM	0.008 µM	0.204 µM	
COc1cc2c(cc1OC)CN(Cc1ccc3cc(C(=O)NCCN(C)C)oc3c1OC)CC2	65%				inhibition [5]: 15%; inhibition [6]: 20%
COc1cc2c(cc1OC)CN(Cc1ccc(OC)c3oc(-c4cccc(F)c4)cc13)CC2	52%				inhibition [5]: 13%; inhibition [6]: 3%
COc1cc2c(cc1OC)CN(Cc1ccc(OC)c3oc(C(=O)NC4CN5CCC4CC5)cc13)CC2 (stereo not given)		0.857 µM	0.0008 µM	0.042 µM	

Second part, led by results:

inhibition [1]	Ki [2]	Ki [3]	Ki [4]	Compound	also measured
29%				COc1ccc(CN2CCN(c3ccccc3)CC2)c2cc(-c3ccccc3)oc12	
41%				COc1cc2c(cc1OC)CN(Cc1ccc(OC)c3oc(-c4ccc(F)cc4)cc13)CC2	
54%				COc1cc2c(cc1OC)CN(Cc1ccc(OC)c3oc(-c4cccc(C(=O)NCCO)c4)cc13)CC2	inhibition [5]: 31%; inhibition [6]: 29%
	0.949 µM	0.018 µM	0.304 µM	COc1cc2c(cc1OC)CN(Cc1ccc(OC)c3oc(-c4ccccc4C(F)(F)F)cc13)CC2	
19%				COc1cc2c(cc1OC)CN(Cc1cc(OC)c3oc(-c4ccccc4)cc3c1)CC2	
	0.804 µM	0.019 µM	2.55 µM	COc1cccc(-c2cc3c(CN4CCc5cc(OC)c(OC)cc5C4)ccc(OC)c3o2)c1	
	0.752 µM	0.02 µM	1.74 µM	COc1cc2c(cc1OC)CN(Cc1ccc(OC)c3oc(-c4ccccc4)cc13)CC2	Activity (Callithrix jacchus [7]): Active; AUC [8]: 11 ng·h/mL
	0.584 µM	0.0094 µM	0.216 µM	COc1cc2c(cc1OC)CN(Cc1ccc(OC)c3oc(-c4cccc(C(=O)NCCN(C)C)c4)cc13)CC2	
6%				COc1cc2c(cc1OC)CN(Cc1ccc(OC)c3oc(C(=O)NCCO)cc13)CC2	
94%				COc1ccc(CN2CCc3ccccc3C2)c2cc(C(=O)NCCN(C)C)oc12	inhibition [5]: 51%; inhibition [6]: 88%
39%				COc1cc2c(cc1OC)CN(Cc1ccc3cc(-c4ccccc4)oc3c1OC)CC2	
35%				COc1cc2c(cc1OC)CN(Cc1ccc(OC)c3oc(-c4ccccc4OC)cc13)CC2	inhibition [5]: 20%; inhibition [6]: 11%
68%				COc1ccc(CN2CCN(c3ccccc3)CC2)c2cc(C(=O)NCCN(C)C)oc12	inhibition [5]: 33%; inhibition [6]: 80%
35%				COc1cc2c(cc1OC)CN(Cc1ccc(OC)c3oc(-c4ccncc4)cc13)CC2	
	0.33 µM	0.0096 µM	0.135 µM	COc1cc2c(cc1OC)CN(Cc1ccc(OC)c3oc(-c4ccccn4)cc13)CC2	
